Assay [1] deals with T1, lipase (Sus scrofa, UniProt P00591).
T1 construct: purchased Solar Bio Science Co. Ltd. (Beijing, China) L3126
T1 sequence (P00591 1-450): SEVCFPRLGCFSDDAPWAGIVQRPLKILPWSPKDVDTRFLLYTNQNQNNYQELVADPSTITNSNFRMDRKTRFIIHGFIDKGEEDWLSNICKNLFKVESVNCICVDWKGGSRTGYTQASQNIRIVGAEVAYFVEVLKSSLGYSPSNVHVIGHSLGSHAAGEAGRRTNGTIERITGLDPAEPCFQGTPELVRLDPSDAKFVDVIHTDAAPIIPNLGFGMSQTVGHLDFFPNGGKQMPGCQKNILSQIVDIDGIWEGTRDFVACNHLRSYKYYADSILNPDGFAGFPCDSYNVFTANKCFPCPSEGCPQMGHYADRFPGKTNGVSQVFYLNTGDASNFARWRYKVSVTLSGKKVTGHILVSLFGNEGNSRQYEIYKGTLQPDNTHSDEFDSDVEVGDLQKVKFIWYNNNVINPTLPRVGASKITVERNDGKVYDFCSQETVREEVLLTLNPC
The assay is described as follows: Assay for lipase inhibitory activity (4-methylumbelliferyl oleate substrate, fluorescence of 4-methylumbelliferone). The format is biochemical. The note with it: for IC50: reference standards (purity > 98%), eight diluted concentrations, 25°C, 20 min; for lipase inhibition ratio: at the concentration of 1.0 mg/mL. The protocol:
4-Methylumbelliferyl oleate (4.406 mg) was accurately weighed and dissolved by Tris-HCl solution (pH 8.0, 1.3 mM NaCl, and 1.3 mM CaCl2) with the final concentration of 0.1 mM. 100 mg lipase was dissolved with deionized water and the insoluble substances were removed by centrifugation at 14,000 rpm for 10 min. Finally, the concentration of enzyme solution was 1.0 mg/mL.
Gallic acid, catechin, epicatechin, polydatin, 2,3,5,4′-tetrahydroxystilbene-2-O-β-D-glucoside, resveratrol, emodin-8-O-glucoside, physcion-8-O-glucoside, rhein, emodin, and physcion with the concentration of 1.0 mg/mL were prepared in methanol for quality control. Rhein, emodin, and physcion were dissolved in DMSO (Dimethyl Sulfoxide) with suitable concentrations. The reference standards solution was diluted serially with 10% methanol for the bioassays. The concentrations of DMSO in a series of samples at different concentrations were less than 0.1% (v/v). […] It was prepared with 10% methanol and diluted to a series of different concentrations.
(§1) The assay of lipase was performed according to previous method with slight modifications. 25 μL test samples and 25 μL lipase solution were mixed together. Then, 50 μL 4-methylumbelliferyl oleate was added to the mixture. After incubating at 25°C for 20 min, 100 μL sodium citrate (0.1 M, pH 4.2) was added to stop the reaction. Finally, the amount of 4-methylumbelliferone released by lipase was measured by microplate reader at an excitation wavelength of 355 nm and an emission wavelength of 460 nm. The inhibitory activity was calculated by the formula: inhibition (%) = [1 − (A sample/A control)] × 100, where A sample and A control were absorbance of the test sample and the control, respectively.
In the bioassay experiments, all the analysis was carried out in triplicate. All values were expressed in the form of mean ± standard deviation (SD); IC50 values were determined by Graph Pad Prism 5 software.

Assay [2] addresses T1, lipase. Nature of the assay: Lipase inhibitory activity of enriched UHPLC fractions of P. multiflorum extract and their contribution to total activity (orlistat potency units). The format is biochemical. The note with it: for lipase inhibitory effect of fractions of peaks: fractions of P. multiflorum extract enriched for 40 and 60 times, Figure 1; for contribution to the total lipase inhibitory activity: potency of individual fraction/total lipase inhibitory × 100%, orlistat equivalent potency units. The protocol:
When the P. multiflorum extract was injected into the UHPLC system, the fraction collector (BSZ-100, Shanghai QingpuHuxi Instrument, Shanghai, China) was used for the fraction collection by setting the time interval at 20 s. Then, the fractions were collected and evaporated to dryness by nitrogen gas. The residues were reconstituted and diluted for bioassays.
as §1
The extract was injected in UHPLC for the separation of the components and all fractions were collected for the bioassays. The lipase inhibitory effect was expressed as inhibition ratio (%), which could be calculated by the above mentioned formula. The time interval of fraction collector was set at 20 s according to the resolution and peak shape in the chromatogram. […] The fractions from the same peak were combined.
The potency calibration curve was constructed by plotting the potency (y) against the corresponding inhibition ratio (x). […] Then, the potency of the enriched fractions was determined by the curve mentioned above. […] The contribution of individual fractions was calculated by the formula: contribution (%) = potency of individual fraction/the total lipase inhibitory × 100%.

Setting [3] is: read-out: IC50 (μg/mL) (converted).

The structures appear in SMILES notation. Where two headings read alike, the source gives them in different places. A value given as a limit tells only on which side of the number the result lay.

As for `Oc1ccc(/C=C/c2cc(O)cc(O)c2)cc1` [Resveratrol], in assay [1] (setting [3]), the IC50 was 2.47 mM. In assay [2], the “lipase inhibitory effect of fractions of peaks” value is reported as “strong inhibition”.

Take `COc1cc(O)c2c(c1)C(=O)c1cc(C)cc(O)c1C2=O` [Physcion]: the IC50 in assay [1] (setting [3]) was 2.86 mM. In assay [2], the “lipase inhibitory effect of fractions of peaks” value is “strong inhibition” and the “contribution to the total lipase inhibitory activity” value is “less than 10%”.

With `O=C(O)c1cc(O)c(O)c(O)c1` [Gallic acid], the lipase inhibition ratio in assay [1] is reported as ≤ 50%. Also, the “lipase inhibitory effect of fractions of peaks” value in assay [2] is “relatively weak inhibitory effect”.

Take `Cc1cc(O[C@@H]2O[C@H](CO)[C@@H](O)[C@H](O)[C@H]2O)c2c(c1)C(=O)c1cc(O)cc(O)c1C2=O` [Emodin-8-O-glucoside]: the “IC50” value in assay [1] was found to be 296.0 µg/mL. Also, in assay [2], the “lipase inhibitory effect of fractions of peaks” value is on record as “strong inhibition” and the “contribution to the total lipase inhibitory activity” value is “less than 10%”.

In the case of `O.Oc1cc(O)c2c(c1)O[C@H](c1ccc(O)c(O)c1)[C@@H](O)C2` [Catechin], the lipase inhibition ratio in assay [1] is listed as ≤ 50%. For the same compound, the “lipase inhibitory effect of fractions of peaks” value in assay [2] was “relatively weak inhibitory effect”.

As to `Oc1cc(O)c2c(c1)O[C@H](c1ccc(O)c(O)c1)[C@H](O)C2` [Epicatechin], the lipase inhibition ratio in assay [1] is reported as ≤ 50%. Moreover, the “lipase inhibitory effect of fractions of peaks” value in assay [2] is given as “relatively weak inhibitory effect”.

In the case of `OC[C@H]1O[C@@H](Oc2cc(O)cc(/C=C/c3ccc(O)cc3)c2)[C@H](O)[C@@H](O)[C@@H]1O` [Polydatin], the “lipase inhibitory effect of fractions of peaks” value in assay [2] was “relatively weak inhibitory effect”.

`Cc1cc(O)c2c(c1)C(=O)c1cc(O)cc(O)c1C2=O` [Emodin]: the IC50 in assay [1] (setting [3]) was 1.29 mM. Also, in assay [2], the “lipase inhibitory effect of fractions of peaks” value is “strong inhibition” and the “contribution to the total lipase inhibitory activity” value is “less than 10%”.

Take `COc1cc(O)c2c(c1)C(=O)c1cc(C)cc(OC3OC(CO)C(O)C(O)C3O)c1C2=O` (stereo not shown) [Physcion-8-O-glucoside]: the “IC50” value in assay [1] was 421.5 µg/mL. Also, in assay [2], the “lipase inhibitory effect of fractions of peaks” value is listed as “strong inhibition”.

As to `O=C(O)c1cc(O)c2c(c1)C(=O)c1cccc(O)c1C2=O` [Rhein], the IC50 in assay [1] (setting [3]) is 0.813 mM. Besides, the “lipase inhibitory effect of fractions of peaks” value in assay [2] is on record as “strong inhibition”.

Values taken from publication PMC4746387, “A Bioactivity-Based Method for Screening, Identification of Lipase Inhibitors, and Clarifying the Effects of Processing Time on Lipase Inhibitory Activity of Polygonum Multiflorum” (Evidence-based Complementary and Alternative Medicine : eCAM, 2016).
